Laboratory results reported in patent US10376555B2, “Identification of cyclic peptide agonists of galanin receptor 2 and 3 guided by spexin solution structure” (Hong Kong Baptist University, priority 2017, dated 2019).
Positions of bridges follow the written chain, without caps; N, C: chain ends. Residues, ends and D or L forms follow the SMILES beside them. No end group written: not given here.

Assays:
Assay type in all cases: cell-based
hGalR1 = target: T1, hGalR1 (Homo sapiens, UniProt P47211); assay: SRE-Luc receptor activation assay, hGalR1; details: for hGalR1 EC50: HEK293 cells transfected with hGalR1, Gqi, SRE-Luc, 6 h treatment, full-dose; for hGalR1 Emax: Relative to hGAL Emax
T1 sequence (P47211 1-349): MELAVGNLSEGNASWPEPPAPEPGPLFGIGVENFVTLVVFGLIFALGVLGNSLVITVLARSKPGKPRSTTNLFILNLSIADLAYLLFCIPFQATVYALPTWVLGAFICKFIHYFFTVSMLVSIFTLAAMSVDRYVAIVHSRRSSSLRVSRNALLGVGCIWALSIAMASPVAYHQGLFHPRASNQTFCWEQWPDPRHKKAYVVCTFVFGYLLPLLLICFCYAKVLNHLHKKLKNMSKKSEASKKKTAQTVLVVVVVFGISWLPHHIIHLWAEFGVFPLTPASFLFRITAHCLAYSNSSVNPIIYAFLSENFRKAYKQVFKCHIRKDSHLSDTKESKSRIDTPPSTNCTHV

hGalR2 = target: T2, hGalR2 (Homo sapiens, UniProt O43603); assay: SRE-Luc receptor activation assay, hGalR2; details: for hGalR2 Emax: Relative to hSPX Emax; for activity on GalR2, in words: full-dose SRE-Luc; for effect of cysteine mutation on receptor activation of GalR2: single dose (1 μM, 6 hours), compared with wild type hSPX
T2 construct: host or cells: HEK293
T2 sequence (O43603 1-387): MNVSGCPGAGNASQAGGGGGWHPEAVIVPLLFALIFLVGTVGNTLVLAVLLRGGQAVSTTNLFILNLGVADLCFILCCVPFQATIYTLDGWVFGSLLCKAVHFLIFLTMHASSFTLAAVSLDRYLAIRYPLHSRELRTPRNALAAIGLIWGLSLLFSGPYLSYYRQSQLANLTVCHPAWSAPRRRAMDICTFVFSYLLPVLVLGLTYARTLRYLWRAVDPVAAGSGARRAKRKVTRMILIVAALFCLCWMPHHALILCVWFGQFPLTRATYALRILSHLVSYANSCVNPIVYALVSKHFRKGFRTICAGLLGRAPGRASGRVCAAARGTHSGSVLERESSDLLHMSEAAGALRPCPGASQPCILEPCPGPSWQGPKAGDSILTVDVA

hGalR3 = target: T3, hGalR3 (Homo sapiens, UniProt O60755); assay: SRE-Luc receptor activation assay, hGalR3; details: for hGalR3 Emax: Relative to hSPX Emax; for activity on GalR3, in words: full-dose SRE-Luc; for effect of cysteine mutation on receptor activation of GalR3: single dose (1 μM, 6 hours), compared with wild type hSPX
T3 construct: host or cells: HEK293
T3 sequence (O60755 1-368): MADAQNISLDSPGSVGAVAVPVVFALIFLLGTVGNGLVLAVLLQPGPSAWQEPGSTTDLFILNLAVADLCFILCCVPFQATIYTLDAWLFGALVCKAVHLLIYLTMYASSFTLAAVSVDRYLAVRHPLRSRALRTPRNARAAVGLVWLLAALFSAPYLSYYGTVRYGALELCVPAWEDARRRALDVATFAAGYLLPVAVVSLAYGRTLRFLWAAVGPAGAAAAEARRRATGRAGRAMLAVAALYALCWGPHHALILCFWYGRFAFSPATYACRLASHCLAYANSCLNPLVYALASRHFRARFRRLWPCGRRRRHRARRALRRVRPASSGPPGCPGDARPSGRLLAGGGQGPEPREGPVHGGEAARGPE

Compound	hGalR1 EC50 (hGalR1)	hGalR1 Emax (hGalR1)	hGalR2 Emax (hGalR2)	activity on GalR2, in words (hGalR2)	effect of cysteine mutation on receptor activation of GalR2 (hGalR2)	hGalR3 Emax (hGalR3)	activity on GalR3, in words (hGalR3)	effect of cysteine mutation on receptor activation of GalR3 (hGalR3)
CSCC[C@H](NC(=O)[C@H](C)NC(=O)[C@H](CCC(N)=O)NC(=O)[C@@H]1CCCN1C(=O)[C@@H](NC(=O)[C@H](Cc1c[nH]c2ccccc12)NC(=O)[C@@H](N)CC(N)=O)[C@@H](C)O)C(=O)N[C@@H](CC(C)C)C(=O)N[C@@H](Cc1ccc(O)cc1)C(=O)N[C@@H](CC(C)C)C(=O)N[C@@H](CCCCN)C(=O)NCC(=O)N[C@@H](CS)C(=O)N[C@@H](CCC(N)=O)C(N)=O [hSPX (C13)] (H-NWTPQAMLYLKGCQ-NH2; N-terminus assumed)	N.M.	N.M.	0.87	little effect on the potency	minimum effects	0.88	little effect on the potency	minimum effects
CSCC[C@H](NC(=O)[C@H](C)NC(=O)[C@H](CCC(N)=O)NC(=O)[C@@H]1CCCN1C(=O)[C@@H](NC(=O)[C@H](Cc1c[nH]c2ccccc12)NC(=O)[C@@H](N)CS)[C@@H](C)O)C(=O)N[C@@H](CC(C)C)C(=O)N[C@@H](Cc1ccc(O)cc1)C(=O)N[C@@H](CC(C)C)C(=O)N[C@@H](CCCCN)C(=O)NCC(=O)N[C@@H](C)C(=O)N[C@@H](CCC(N)=O)C(N)=O [hSPX (C1)] (H-CWTPQAMLYLKGAQ-NH2; N-terminus assumed)	N.M.	N.M.	1.05	little effect on the potency	minimum effects	1.00	little effect on the potency	minimum effects
C10: hSPX mutant with single mutation to cysteine at position 10 (NWTPQAMLYCKGAQ-NH2)					severely impaired bioactivity			severely impaired bioactivity
C12: hSPX mutant with single mutation to cysteine at position 12 (NWTPQAMLYLKCAQ-NH2)					severely impaired bioactivity			severely impaired bioactivity
CSCC[C@@H]1NC(=O)[C@H](C)NC(=O)[C@H](CCC(N)=O)NC(=O)[C@@H](NC(=O)[C@@H](NC(=O)[C@H](Cc2c[nH]c3ccccc23)NC(=O)[C@@H](N)CC(N)=O)[C@@H](C)O)CSSC[C@@H](C(=O)N[C@@H](CCC(N)=O)C(N)=O)NC(=O)CNC(=O)[C@H](CCCCN)NC(=O)[C@H](CC(C)C)NC(=O)[C@H](Cc2ccc(O)cc2)NC(=O)[C@H](CC(C)C)NC1=O [LH102] (H-NWTCQAMLYLKGCQ-NH2; disulfide 4-13; N-terminus assumed)	N.M.	N.M.	1.08					
C14: hSPX mutant with single mutation to cysteine at position 14 (NWTPQAMLYLKGAC-NH2)					severely impaired bioactivity			severely impaired bioactivity
CC(C)C[C@H](NC(=O)CNC(=O)[C@H](CC(N)=O)NC(=O)[C@H](CCCCN)NC(=O)[C@H](CC(=O)O)NC(=O)[C@H](CO)NC(=O)[C@H](Cc1ccccc1)NC(=O)[C@H](CO)NC(=O)[C@H](CCCNC(=N)N)NC(=O)[C@H](Cc1c[nH]cn1)NC(=O)[C@H](CC(N)=O)NC(=O)CNC(=O)[C@@H](NC(=O)[C@H](C)NC(=O)[C@H](Cc1c[nH]cn1)NC(=O)[C@@H]1CCCN1C(=O)CNC(=O)[C@H](CC(C)C)NC(=O)[C@H](CC(C)C)NC(=O)[C@H](Cc1ccc(O)cc1)NC(=O)CNC(=O)[C@H](C)NC(=O)[C@H](CO)NC(=O)[C@H](CC(N)=O)NC(=O)[C@H](CC(C)C)NC(=O)[C@@H](NC(=O)[C@H](Cc1c[nH]c2ccccc12)NC(=O)CN)[C@@H](C)O)C(C)C)C(=O)N[C@H](C(=O)N[C@@H](CO)C(N)=O)[C@@H](C)O [hGAL, reference compound]			0.94			0.68		
